Laboratory results: BigSolDB 2.1

CS(=O)(=O)c1cccc(C[C@H](NC(=O)c2c(Cl)cc3c(c2Cl)CCN(C(=O)c2ccc4ccoc4c2)C3)C(=O)O)c1
Details | solubility (mole fraction)
in PEG-400, 288.15 K | 0.0757
in PEG-400, 293.15 K | 0.0767
in PEG-400, 298.15 K | 0.0776
in PEG-400, 303.15 K | 0.0786
in PEG-400, 308.15 K | 0.0796

solubility (mole fraction)
Details | 288.15 K | 293.15 K | 298.15 K | 303.15 K | 308.15 K
in glycerin | 0.000104 | 0.000118 | 0.000133 | 0.000151 | 0.000167
in propylene glycol | 0.00102 | 0.00119 | 0.00138 | 0.00161 | 0.00183
in transcutol | 0.015 | 0.0159 | 0.0168 | 0.0178 | 0.0187
in water | 1.49e-06 | 1.85e-06 | 2.31e-06 | 2.79e-06 | 3.37e-06
